From paper PMC2871681 (Bioorganic & medicinal chemistry, 2010)
“Also recorded” adds a separate entry of the source. Where two headings read alike, the source gives them in different places.

Tests used:
mGluR5 [1] = target: T1, mGluR5 (Rattus norvegicus, UniProt P31424); experiment: mGluR5 functional assay, calcium fluorescence; format: cell-based
mGluR5 [2] = target: T1, mGluR5; experiment: mGluR5 radioligand displacement binding assay with [3H]MPEP; settings: for decrease in binding affinity compared to the phenyl analogue: 17 v. 22, 18 v. 25
[3] = read-out: mGluR5 binding affinity Ki±SEM, [3H]MPEP, rat brain membranes or HEK293-T cells transfected with cloned rat mGluR5
[4] = read-out: mGluR5 function (Ca+2 flux) IC50±SEM, inhibition of glutamate-induced calcium mobilization

T1 sequence (P31424 21-1203): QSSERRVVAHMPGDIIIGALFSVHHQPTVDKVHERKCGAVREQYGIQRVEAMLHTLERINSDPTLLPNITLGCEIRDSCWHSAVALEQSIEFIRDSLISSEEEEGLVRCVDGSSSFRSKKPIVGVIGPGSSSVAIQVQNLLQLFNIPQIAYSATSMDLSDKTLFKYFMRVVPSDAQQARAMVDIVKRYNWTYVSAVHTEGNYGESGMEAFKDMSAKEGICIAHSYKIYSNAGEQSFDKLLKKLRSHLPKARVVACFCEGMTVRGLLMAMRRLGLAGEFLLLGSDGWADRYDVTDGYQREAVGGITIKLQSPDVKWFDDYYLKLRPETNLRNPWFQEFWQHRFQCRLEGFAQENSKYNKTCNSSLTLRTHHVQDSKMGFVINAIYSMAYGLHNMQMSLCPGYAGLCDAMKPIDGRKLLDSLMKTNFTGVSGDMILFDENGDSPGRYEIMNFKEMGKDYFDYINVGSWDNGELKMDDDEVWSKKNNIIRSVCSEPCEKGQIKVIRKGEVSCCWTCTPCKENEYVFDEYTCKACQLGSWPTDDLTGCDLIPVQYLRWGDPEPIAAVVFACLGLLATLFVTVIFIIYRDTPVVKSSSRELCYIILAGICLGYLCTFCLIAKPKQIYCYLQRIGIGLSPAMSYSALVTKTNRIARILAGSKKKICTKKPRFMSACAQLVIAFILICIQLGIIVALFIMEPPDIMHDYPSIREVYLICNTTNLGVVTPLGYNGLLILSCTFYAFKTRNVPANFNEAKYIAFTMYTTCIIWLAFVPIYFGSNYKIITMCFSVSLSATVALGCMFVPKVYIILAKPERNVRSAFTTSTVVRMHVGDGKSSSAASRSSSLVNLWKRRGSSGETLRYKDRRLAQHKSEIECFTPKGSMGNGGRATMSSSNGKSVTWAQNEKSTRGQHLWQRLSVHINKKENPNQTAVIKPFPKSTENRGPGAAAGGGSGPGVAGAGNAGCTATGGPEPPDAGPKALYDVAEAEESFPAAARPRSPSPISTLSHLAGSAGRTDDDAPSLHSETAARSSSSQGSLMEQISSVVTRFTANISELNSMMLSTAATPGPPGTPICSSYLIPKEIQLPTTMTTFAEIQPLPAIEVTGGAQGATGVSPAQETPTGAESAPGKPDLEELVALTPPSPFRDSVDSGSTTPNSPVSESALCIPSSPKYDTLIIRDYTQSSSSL

## Cc1ccc2ccc(-c3cnc(Cl)c(C#N)c3)cc2n1 [compound 31, 2-Chloro-5-(2-methylquinolin-7-yl)nicotinonitrile]
mGluR5 [1]; glutamate-induced mGluR5 activity
  mode of mGluR5 antagonism (full or partial): partial antagonist activity; also recorded: weak partial antagonist

## Cc1ccc2ccc(-c3ccc(OCc4ccccc4)c(C#N)c3)cc2n1 [compound 17, 2-Benzoxy-5-(2-methylquinolin-7-yl)benzonitrile]
mGluR5 [2]
  decrease in binding affinity compared to the phenyl analogue: ~ 10 fold

## 2-(Pyridin-3-yl)-4-(2-methylbenzo[d]thiazol-5-yl)benzonitrile [compound 26]
mGluR5 [2]
  activity at mGluR5 in words: completely inactive
mGluR5 [2]; [3]
  Ki: > 10000 nM
mGluR5 [1]; [4]
  IC50: > 10000 nM

## 2-Phenyl-4-(2-methylbenzo[d]thiazol-5-yl)benzonitrile [compound 25]
mGluR5 [2]; 25 v. 4
  increase in binding affinity compared to parent structure 4: ~ 4 fold
mGluR5 [2]; [3]
  Ki: 483 ± 98 nM
mGluR5 [1]; [4]
  IC50: 6890 ± 1250 nM

## Cc1nc2cc(-c3ccc(OCc4ccccc4)c(C#N)c3)ccc2s1 [compound 18, 2-Benzoxy-5-(2-methylbenzo[d]thiazol-5-yl)benzonitrile]
mGluR5 [2]
  decrease in binding affinity compared to the phenyl analogue: 15 fold

## Cc1ccc2ccc(-c3cncc(C#N)c3)cc2n1 [compound 30, 5-(2-Methylquinolin-7-yl)nicotinonitrile]
mGluR5 [2]
  Ki: 100 ± 21 nM
mGluR5 [1]
  IC50: 68 ± 5.3 nM
